The term Ki denotes a dissociation constant, usually derived from enzyme kinetics or from competition with a known ligand.

Here are results for eleven molecules from patent US8969552B2, “Arylsulfonylmethyl or arylsulfonamide substituted aromatic compounds suitable for treating disorders that respond to modulation of the dopamine D3 receptor” (AbbVie Deutschland GmbH & Co. KG, priority 2004, dated 2015).

This experiment addresses T1, human dopamine D3 receptors (Homo sapiens, UniProt P35462).
T1 construct: expressed in transfected cells; membranes
Description: Dopamine D3 receptor binding, [125I]-iodosulpride displacement. The following applies: for Ki: membranes of HEK-293 cells stably expressing human D3 receptor, 0.1 nM [125I]-iodosulpride, 25° C., 60 minutes; for Ki(D2)*/Ki(D3)*: selectivity ratio of receptor binding constants D2 versus D3. As for the experimental part: The substance to be tested was either dissolved in methanol/Chremophor® (BASF-AG) or in dimethyl sulfoxide and then diluted with water to the desired concentration.
Each assay mixture was run in triplicate.
The incubation buffer contained 50 mM tris, 120 mM NaCl, 5 mM KCl, 2 mM CaCl2, 2 mM MgCl2 and 0.1% bovine serum albumin, 10 μM quinolone and 0.1% ascorbic acid (prepared fresh daily). The buffer was adjusted to pH 7.4 with HCl.
Measurement and Analysis:
After having been incubated at 25° C. for 60 minutes, the assay mixtures were filtered through a Whatman GF/B glass fiber filter under vacuum using a cell collecting device. The filters were transferred to scintillation viols using a filter transfer system. After 4 ml of Ultima Gold® (Packard) have been added, the samples were shaken for one hour and the radioactivity was then counted in a Beta-Counter (Packard, Tricarb 2000 or 2200CA). The cpm values were converted into dpm using a standard quench series and the program belonging to the instrument.
The inhibition curves were analyzed by means of iterative nonlinear regression analysis using the Statistical Analysis System (SAS) which is similar to the “LIGAND” program described by Munson and Rodbard.
The results of the receptro binding studies are expressed as receptor binding constants Ki(D2) and Ki(D3), respectively, as herein before described, and given in table 2.

SMILES strings stand for the structures.

T1 sequence (P35462 whole entry): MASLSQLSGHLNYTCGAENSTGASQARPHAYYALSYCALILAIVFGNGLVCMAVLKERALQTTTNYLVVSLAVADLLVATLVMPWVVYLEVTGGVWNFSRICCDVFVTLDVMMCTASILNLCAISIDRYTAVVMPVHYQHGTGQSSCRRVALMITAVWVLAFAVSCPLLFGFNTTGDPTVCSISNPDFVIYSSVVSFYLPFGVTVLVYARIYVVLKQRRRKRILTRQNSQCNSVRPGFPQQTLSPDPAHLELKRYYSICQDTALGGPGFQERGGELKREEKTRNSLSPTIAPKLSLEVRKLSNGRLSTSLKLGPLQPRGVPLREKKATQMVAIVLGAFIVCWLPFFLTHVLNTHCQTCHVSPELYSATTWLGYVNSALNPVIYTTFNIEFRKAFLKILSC

With `CCCN[C@H]1CCc2cc(NS(=O)(=O)c3ccc(C4CC4(F)F)cc3)ccc2C1.Cl` (stereo partly drawn) [Example 48, 4-(2,2-Difluoro-cyclopropyl)-N—((S)-6-propylamino-5,6,7,8-tetrahydro-naphthalen-2-yl)benzenesulfonamide, hydrochloride], the affinity corresponds to a Ki of 1.5 nM and the “Ki(D2)*/Ki(D3)*” value is 128.

Consider `CCCN[C@H]1CCc2cc(NS(=O)(=O)c3ccc(CCC)s3)ccc2C1.Cl` [Example 52, 5-Propyl-thiophene-sulfonic acid ((S)-6-propylamino-5,6,7,8-tetrahydro-naphthalen-2-yl)amide, hydrochloride], for which the affinity corresponds to a Ki of 0.7 nM and the “Ki(D2)*/Ki(D3)*” value was found to be 71.

In the case of `CCN[C@H]1CCc2cc(NS(=O)(=O)c3ccc(C(C)C)cc3)ccc2C1.Cl` [Example 64, N—((S)-6-Ethylamino-5,6,7,8-tetrahydro-naphthalen-2-yl)-4-isopropyl-benzenesulfonamide, hydrochloride], the Ki was determined as 3.4 nM and the “Ki(D2)*/Ki(D3)*” value worked out at 70.

Turning to `CCCN[C@H]1CCc2cc(NS(=O)(=O)c3ccc(OC(F)F)cc3)ccc2C1.Cl` [Example 46, 4-Difluoromethoxy-N—((S)-6-propylamino-5,6,7,8-tetrahydro-naphthalen-2-yl)benzenesulfonamide, hydrochloride], affinity was put at a Ki of 2.5 nM and the “Ki(D2)*/Ki(D3)*” value is given as 100.

For `CC(C)c1ccc(S(=O)(=O)Nc2ccc3c(c2)CC[C@H](NCCCF)C3)cc1.Cl` [Example 68, N—[(S)-6-(3-Fluoro-propylamino)-5,6,7,8-tetrahydro-naphthalen-2-yl]-4-isopropylbenzenesulfonamide, hydrochloride], the Ki turned out to be 2 nM and the “Ki(D2)*/Ki(D3)*” value was 42.

Consider `CCN[C@H]1CCc2cc(NS(=O)(=O)c3ccc(N4CCCC4)cc3)ccc2C1.Cl` [Example 70, N—((S)-6-Ethylamino-5,6,7,8-tetrahydro-naphthalen-2-yl)-4-pyrrolidin-1-ylbenzenesulfonamide, hydrochloride], for which the Ki is 3.6 nM and the “Ki(D2)*/Ki(D3)*” value is on record as 61.

For `CCCN[C@H]1CCc2cc(NS(=O)(=O)c3ccc(N(C)C)cc3)ccc2C1.Cl` [Example 50, 4-Dimethylamino-N—((S)-6-propylamino-5,6,7,8-tetrahydro-naphthalen-2-yl)benzenesulfonamide, hydrochloride], affinity was put at a Ki of 1.8 nM and the “Ki(D2)*/Ki(D3)*” value worked out at 95.

Regarding `CCCN[C@@H]1CCc2cc(NS(=O)(=O)c3ccc(CCCF)cc3)ccc2C1.Cl` [Example 58, 4-(3-Fluoro-propyl)-N—((R)-6-propylamino-5,6,7,8-tetrahydro-naphthalen-2-yl)benzenesulfonamide, hydrochloride], the Ki stood at 0.15 nM and the “Ki(D2)*/Ki(D3)*” value was determined as 229.

On to `CCCN[C@H]1CCc2cc(NS(=O)(=O)c3ccc(N4CCCC4)cc3)ccc2C1.Cl` [Example 49, N—((S)-6-Propylamino-5,6,7,8-tetrahydro-naphthalen-2-yl)-4-pyrrolidin-1-ylbenzenesulfonamide, hydrochloride], for which the affinity corresponds to a Ki of 1.3 nM and the “Ki(D2)*/Ki(D3)*” value stood at 63.

With `CCCN[C@H]1CCc2cc(NS(=O)(=O)c3ccc([C@@H](C)CF)cc3)ccc2C1.Cl` [Example 56, 4-((R)-2-Fluoro-1-methyl-ethyl)-N—((S)-6-propylamino-5,6,7,8-tetrahydro-naphthalen-2-yl)benzenesulfonamide, hydrochloride], the affinity corresponds to a Ki of 2.4 nM and the “Ki(D2)*/Ki(D3)*” value was 161.

As for `CCCN[C@H]1CCc2cc(NS(=O)(=O)c3ccc(CCCF)cc3)ccc2C1` [Example 51, 4-(3-Fluoro-propyl)-N—((S)-6-propylamino-5,6,7,8-tetrahydro-naphthalen-2-yl)benzenesulfonamide], the Ki was found to be 1.7 nM and the “Ki(D2)*/Ki(D3)*” value is listed as 56.
